The test system of one data set is Hs695T cells. The data set is described as follows: Drug response and viability assay, Hs695T. The class given is cell-based, human. The protocol:
Cells were seeded at 1500-2500 cells per well in triplicates, in 96 well format. Next day, appropriate inhibitor was added in serial dilution from 1.00×102 μM or indicated single doses. Vehicle (DMSO) was added to match volume of inhibitor used for highest concentration. After 96-120 hours, 5× AlamarBlue® reagent (resazurin sodium salt, Sigma) was added to wells and incubated for 2-4 hours. Fluorescence at 585 nm (excitation 555 nm) was measured by SpectraMax i3 Microplate Reader. Raw values were normalized to vehicle, analyzed and graphed using GraphPad Prism v7/8 software.

The conditions of data set [1]: patients with refractory hematologic malignancies; cited from earlier work.
Data set [2] concerns TLR9 and p-IRAK4 interaction. Kind of data set: Proximity ligation assay (PLA). Type of data set: cell-based, human. As to conditions: 3 PDAC lines; 10 μM, 16 hours. The protocol: PLA was performed using Duolink® in situ Red Starter Kit Mouse/Rabbit (DUO92101, Sigma) per manufacturer's protocol. Briefly, cells were seeded on cover slips in 6 well plate at ˜50% confluency per well. Next day cells were treated with SN-38 (10 μM) and 16 hours later PLA was performed using p-IRAK4 (ABNOVA) and TLR9 (CST) primary antibodies. Stained cells were imaged using Nikon C2+ fluorescent microscope paired with NIS-Element software. Number of puncta per field was quantitated for six 400× fields per condition using Find Maxima tool in ImageJ software. Data was exported and graphed in GraphPad Prism v8.

A further data set concerns p-MEK, p-ERK, and p-RSK. The data set is described as follows: Immunoblots of MAPK pathway markers in human cell lines. The class given is cell-based. The method, then: (§1) Standard immunoblotting procedure was followed. Cells were washed twice with ice-cold 1×PBS and lysed with ice-cold triton-X lysis buffer (25 mM Tris, pH 7.4, 150 mM NaCl, 5 mM EDTA, 1% Triton-X) containing 1× protease (10 μg mL-1 leupeptin, 700 ng mL-1 pepstatin, 170 ng mL-1 aprotinin, 1 mM PMSF) and phosphatase (10 mM NaF, 1 mM Na3VO4, 1 mM Na4P2O^7, 5 mM Na b-glycerophosphate) inhibitors. Lysates were quantified by Bradford assay (Thermo Scientific), normalized for concentration, and reduced and denatured with 6×SDS sample buffer followed by boiling for 5 minutes. 20-40 μg of protein per sample was resolved by SDS-PAGE, blotted on PVDF membrane and probed with primary antibodies (Cell Signaling Technologies: p-ERK1/2 (#4370), p-MEK1/2 (#9154), ERK1/2 (#4695), MEK1/2 (#8727), p-p105 (#4806), NFS2KB1 p105/p50 (#3035), p-IRAK4 (#11927), IRAK4 (#4363), ubiquitin (#43124), anti-HA (#3724), p-p90RSK (#11989), RSK1/2/3 (#9355), p-TPL2 (#4491), PARP (#9532), p-B-RAF S445 (#2696), BRAF (#9433S). Santa Cruz Biotechnology: GAPDH (#sc-32233), p-p65 S536 (#sc101752). Thermo Fisher Scientific: p-55 TPL2 (#PA5-36635). EMD Millipore: IRAK4 (#07-418). R&D systems: TPL2/MAP3K8 (#MAB4586). Novus Biologicals: anti-AU1 (#NB600-453). Abcam: p-p65 S276 (#ab194726)). Membranes were incubated with appropriate HRP-conjugated secondary antibodies (anti-mouse or anti-rabbit, (1:5000 dilution), Jackson Laboratory) and imaged using chemiluminescent substrate. Additional steps for immunoprecipitation include incubation of soluble fraction lysate with anti-HA magnetic beads (Thermo Scientific cat #88837) overnight at 4° C., washing, and elution using 1×SDS sample buffer and boiling as mentioned in manufacturer's protocol.
A general note: A western blot detects proteins with antibodies after separation by electrophoresis.

For the next data set, the system named is p-p105, p-p65. Kind of data set: Immunoblots of NF-κB markers in PDAC cells. As to conditions: PDAC lines after chemotherapy. The class given is cell-based, human. The protocol:
as §1

In another data set the test system is IL1B. The data set is described as follows: qRT-PCR of IL1B in HEK T/tH KRAS^G12V cells. Type of data set: cell-based, human. As to conditions: 16 hours. The protocol:
Total RNA was isolated using RNAzol RT (Sigma), cDNA was generated using High Capacity cDNA reverse transcription kit (Thermo Fisher Scientific, 4368814) and qPCR was performed using SYBR-Green reagent (Applied Biosystems, cat #4309155). All experiments were performed in biological duplicates or triplicates (n=2,3).
(In general: Quantitative PCR measures a nucleic acid by following its amplification.)

For data set [3], the system named is serum-response element (SRE). The data set is described as follows: Serum-response element (SRE) luciferase reporter assay. The class given is cell-based, human. As to conditions: for SRE reporter activity (MAPK cascades): KRAS-mutant HPAC, MIA Paca-2, and Pa01C cells. The method, then: Cells stably expressing plasmid encoding serum-response-element (SRE) or NFKB promoter driven Firefly luciferase and constitutive Renilla luciferase were seeded at equal density per well and treatment was initiated the next day for 16-24 duration. Alternatively, 293T reporter cells were transfected in duplicate or triplicate with 1 μg of appropriate plasmid DNA. Medium was replaced 16-18 hours later and at 48 hours post-transfection reporter activity was measured using Dual-Glo® Luciferase Assay System. Data was acquired using SpectraMax i3Microplate Reader and analysis was performed by calculating ratio of firefly:renilla. Values were normalized to control and graphed using GraphPad Prism v7/8 software.
(In general: A reporter such as luciferase makes a cellular process visible.)

As for `CCCS(=O)(=O)Nc1ccc(F)c(C(=O)c2c[nH]c3ncc(-c4ccc(Cl)cc4)cc23)c1F` [PLX4032], the viability result with Hs695T cells is “modest growth suppressive effect”.
For the molecule `Cc1cc(-c2nc(C(=O)Nc3cc4oc(N5CCOCC5)nc4nc3N3CC[C@@H](O)C3)co2)ccn1` [CA-4948, N-[5-[(3R)-3-hydroxypyrrolidin-1-yl]-2-morpholin-4-yl-[1,3]oxazolo[4,5-b]pyridin-6-yl]-2-(2-methylpyridin-4-yl)-1,3-oxazole-4-carboxamide], in data set [1], the “patients developing grade 1-2 neutropenia” value was 23% and the “tolerability in clinical trial” value is “rather well tolerated”.
On to `CCc1c2c(nc3ccc(O)cc13)-c1cc3c(c(=O)n1C2)COC(=O)[C@]3(O)CC` [SN-38], for which the “TLR9 and p-IRAK4 interaction” value in data set [2] is reported as “markedly increased”. Also, the “induction of p-ERK, p-MEK, p-RSK, p-TPL2 and p-IRAK4” value in the data set on p-MEK, p-ERK, and p-RSK (multiple PDAC lines, 10 μM, 16 hours, compared with 4 other chemotherapeutic agents) was “most potent in inducing”. Moreover, in the data set with p-p105, p-p65, the “NF-κB induction (p-p105)” value is “also induced”.
As for `CS(=O)(=O)N1CCN(Cc2cc3nc(-c4cccc5[nH]ncc45)nc(N4CCOCC4)c3s2)CC1` [GDC-0941], in the data set on IL1B, the “IL-1B production (IL1B expression by qRT-PCR)” value is recorded as “no effect”.
Turning to `O=C(Nc1cc(C(F)(F)F)cc(C(F)(F)F)c1)c1cc(Cl)ccc1O` [IMD-0354], the “SRE-driven luciferase reporter activity” value in data set [3] (HPAC cells) is “dose-dependent suppression”.
In the case of `CC(C)Nc1cc(-c2c[nH]c(C(=O)N[C@H](CO)c3cccc(Cl)c3)c2)c(Cl)cn1` [ulixertinib], the “IL-1B production (IL1B expression by qRT-PCR)” value in the data set with IL1B is “significantly abrogated”.
Consider `CCCS(=O)(=O)Nc1ccc(F)c(C(=O)c2c[nH]c3ncc(Cl)cc23)c1F` [PLX-4720], for which the “SRE reporter activity (MAPK cascades)” value in data set [3] is listed as “paradoxically hyperactivate”.
As for `CC(C)(C)c1nc(-c2cccc(NS(=O)(=O)c3c(F)cccc3F)c2F)c(-c2ccnc(N)n2)s1` [dabrafenib], in data set [3], the “SRE reporter activity (MAPK cascades)” value is “paradoxically hyperactivate”.
With “recombinant hIL-1B: recombinant human IL-1B”, the “p-IRAK4, p-TPL2, p-MEK, p-ERK, and p-RSK” value in the data set with p-MEK, p-ERK, and p-RSK (HEK T/H, HPAC, and Pa01C cells, 100 ng/ml) is “upregulated”.

The values are drawn from patent publication US12173039B1, “TPL2 inhibiting agents, uses thereof, and detection of TPL2” (Washington University, priority 2021, dated 2024).
